Assay [1] addresses T1, EGFR (WT) (Homo sapiens, UniProt P00533).
T1 construct: host or cells: NIH3T3
Briefly: EGFR target modulation in engineered NIH3T3 cell lines (phospho-EGFR AlphaLISA). Type of assay: cell-based. To be noted: NIH3T3 cells expressing human EGFR WT; 3 hours compound; induced with 50 ng/ml EGF. The protocol:
(§1) EGFR Target Modulation in Engineered NIH3T3 Cell Lines
(§2) NIH3T3 cell lines expressing human EGFR (WT, L858R, and L858RT790M) (obtained from Matthew Meyerson's Lab at DFCI) were maintained in 10% FBS/DMEM supplemented with 100 μg/ml Penicillin/Streptomycin (Hyclone #SV30010) and 2 μg/ml Puromycin. The cells were harvested with 0.05% Trypsin/EDTA (Hyclone #SH30236.01), re-suspended in 5% FBS/DMEM Pen/Strep without Puromycin and plated at 9,000 cells per well in 50 μl of media in a 384-well black plate with clear bottoms (Greiner #789068G). The cells were allowed to incubate overnight in a 37° C., 5% CO2 humidified tissue culture incubator. A 12-point test compound curve was prepared by serial diluting a 10 μM stock 1:3 in DMSO in a 384-well compound plate (Greiner #789201L). The serial diluted compounds were transferred to the plate containing cells by using a 50 nl Pin Head device (Perkin Elmer) and the cells were placed back in the incubator for 3 hours. Only the EGFR WT-expressing cells were induced with 50 ng/ml EGF (Preprotech #AF-100-15) for 5 minutes before lysis. The media was removed and cells were lysed in 25 μl of Lysis buffer containing protease and phosphatase inhibitors (1% Triton X-100, 20 mM Tris, pH 7.5, 1 mM EDTA, 1 mM EGTA, 150 mM NaCl, 1× complete cocktail inhibitor (Roche #11 697 498 001), 1× Phosphatase Inhibitor Cocktail Set II and Set III (Sigma #P5726 and #P0044)). The plates were shaken at 4° C. for 5 minutes with foil top at maximum speed. An aliquot of 5 μl from each well was transferred to ProxiPlate™ 384-well Plus plates (PE #6008289). The plates were sealed with a foil top and frozen at −80° C. and thawed when needed.
(§3) The frozen aliquots were thawed and briefly centrifuged. All antibodies and beads were diluted in 1× AlphaLISA HiBlock Buffer (PE #AL004C). Biotinylated anti-phospho-EGFR (Y1068) (Cell Signaling #4031) was incubated with the lysate for 1 hour at room temperature at 1 nM final concentration. Goat anti-total EGFR (R&D Systems #AF231) was added and allowed to equilibrate for 1 hour at room temperature at 1 nM final concentration. Then, 10 μl of mixed beads (AlphaScreen Streptavidin Donor Beads (PE #6760002S) and AlphaLISA anti-goat IgG Acceptor Beads (PE #AL107C)) was equilibrated for 1.5 hours before reading on EnVision plate reader using the built-in settings for AlphaScreen.
(§4) Cells untreated (L858R and L858RT790M) or EGF-induced (WT) were set to 100% maximum response. For a negative control, 10 μM HKI-272 was used to normalize data to 0% of maximum response. With these parameters, the IC50's for each compound in each cell line was calculated using non-linear curve fitting analysis.

The target in assay [2] is T2, EGFR (L858R) (Homo sapiens, UniProt P00533, L858R).
T2 construct: host or cells: NIH3T3
Described as above. Type of assay: cell-based. To be noted: NIH3T3 cells expressing human EGFR L858R; 3 hours compound. Here is the method: as §1, §2, §3, §4

The target in assay [3] is T3, EGFR(L858R/T790M) (Homo sapiens, UniProt P00533, L858R/T790M). Briefly: EGFR biochemical assay (HTRF), IC50 determination. Set-up: purchased from Carna (GST-a.a. 669-1210); purchased Carna. To be noted: 10 μM ATP. Here is the method: All EGFR biochemical assays were carried out by HTRF method. The EGFR(L858RT790M) enzyme were purchased from Carna (GST-a.a. 669-1210). The substrate peptide Biotin-TK-peptide was purchased from Cis-Bio. The reaction mixtures contained 1 μM peptide substrate, 10 μM ATP, and 0.036 nM EGFR(L858RT790M) in the reaction buffer (50 mM HEPES pH 7.1, 10 mM MgCl2, 0.01% BSA, 1 mM TCEP and 0.1 mM Na3VO4) at a final volume of 10 μL. All reactions were carried out at room temperature in white ProxiPlate™ 384-well Plus plates (PerkinElmer) and were quenched with 5 μL of 0.2 M EDTA at 60 min Five μL of the detection reagents (2.5 ng PT66K and 0.05 μg SAXL per well) were added, the plates were incubated at room temperature for 1 h and then read in EnVision reader. […] For no-preincubation condition, the compounds were added to the assay solution containing ATP and peptide, and the reaction was initiated by addition of enzyme. For pre-incubation conditions, the compounds were added to the assay solution containing enzyme and peptide, and pre-incubated at room temperature for desired period of time, then the reaction was initiated by addition of ATP.
Target sequence in this assay (P00533 669-1210 T790M/L858R): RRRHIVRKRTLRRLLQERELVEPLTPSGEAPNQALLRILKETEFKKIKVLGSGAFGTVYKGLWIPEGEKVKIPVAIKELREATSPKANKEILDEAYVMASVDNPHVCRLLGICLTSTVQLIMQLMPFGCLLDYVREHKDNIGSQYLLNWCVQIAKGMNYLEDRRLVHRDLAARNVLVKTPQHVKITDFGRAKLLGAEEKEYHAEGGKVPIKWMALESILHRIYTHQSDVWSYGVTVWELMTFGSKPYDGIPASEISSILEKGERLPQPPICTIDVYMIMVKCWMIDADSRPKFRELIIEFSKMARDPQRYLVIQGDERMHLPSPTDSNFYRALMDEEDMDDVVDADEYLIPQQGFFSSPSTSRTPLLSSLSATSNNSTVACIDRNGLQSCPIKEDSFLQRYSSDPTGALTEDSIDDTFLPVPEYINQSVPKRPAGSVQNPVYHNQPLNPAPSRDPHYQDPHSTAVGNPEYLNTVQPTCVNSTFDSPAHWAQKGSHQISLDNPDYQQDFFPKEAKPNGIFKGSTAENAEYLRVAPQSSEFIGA

For assay [4], the target named is T3, EGFR(L858R/T790M). In words: EGFR target modulation in engineered NIH3T3 cell lines (phospho-EGFR AlphaLISA). Type of assay: cell-based. To be noted: NIH3T3 cells expressing human EGFR L858R/T790M; 3 hours compound. Set-up: host or cells: NIH3T3. Here is the method:
as §1, §2, §3, §4
Target sequence in this assay (P00533 25-1210 T790M/L858R): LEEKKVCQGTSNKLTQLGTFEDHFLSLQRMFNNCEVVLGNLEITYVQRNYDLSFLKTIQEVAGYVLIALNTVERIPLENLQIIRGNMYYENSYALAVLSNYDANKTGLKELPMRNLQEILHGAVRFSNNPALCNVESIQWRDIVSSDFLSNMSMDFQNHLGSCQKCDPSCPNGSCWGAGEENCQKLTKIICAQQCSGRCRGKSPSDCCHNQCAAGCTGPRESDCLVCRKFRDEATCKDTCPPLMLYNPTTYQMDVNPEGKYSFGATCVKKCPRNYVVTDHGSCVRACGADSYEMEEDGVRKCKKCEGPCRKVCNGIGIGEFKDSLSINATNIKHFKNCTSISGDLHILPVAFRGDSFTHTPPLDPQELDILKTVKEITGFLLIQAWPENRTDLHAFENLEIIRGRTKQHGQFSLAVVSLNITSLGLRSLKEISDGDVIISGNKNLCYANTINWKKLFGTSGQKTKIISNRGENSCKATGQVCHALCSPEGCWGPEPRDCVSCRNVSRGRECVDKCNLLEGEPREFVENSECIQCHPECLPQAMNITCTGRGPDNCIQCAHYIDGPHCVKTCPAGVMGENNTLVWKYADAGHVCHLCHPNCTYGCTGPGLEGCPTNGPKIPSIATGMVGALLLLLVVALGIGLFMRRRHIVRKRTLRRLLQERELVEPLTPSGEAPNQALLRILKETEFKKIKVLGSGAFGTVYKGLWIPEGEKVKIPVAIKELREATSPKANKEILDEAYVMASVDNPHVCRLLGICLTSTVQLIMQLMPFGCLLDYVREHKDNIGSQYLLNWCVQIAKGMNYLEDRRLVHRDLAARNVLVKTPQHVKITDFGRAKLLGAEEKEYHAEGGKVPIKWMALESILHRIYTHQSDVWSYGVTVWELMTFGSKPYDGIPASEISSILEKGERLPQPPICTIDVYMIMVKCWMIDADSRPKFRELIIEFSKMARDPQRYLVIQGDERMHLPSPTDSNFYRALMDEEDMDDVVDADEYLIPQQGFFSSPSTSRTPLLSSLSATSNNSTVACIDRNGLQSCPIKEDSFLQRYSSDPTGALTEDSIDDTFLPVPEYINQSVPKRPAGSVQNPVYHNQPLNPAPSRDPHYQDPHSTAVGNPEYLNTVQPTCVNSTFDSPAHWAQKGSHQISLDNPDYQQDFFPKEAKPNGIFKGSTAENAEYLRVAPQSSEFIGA

Setting [5] is: EGFR (L858R/T790M) IC50 (μM) 90 min pre-incubation, 90 min pre-incubation.
The mark [6] stands for this setting: no pre-incubation, read-out: EGFR (L858R/T790M) IC50 (μM) No pre-incubation.

T2 sequence (P00533 25-1210 L858R): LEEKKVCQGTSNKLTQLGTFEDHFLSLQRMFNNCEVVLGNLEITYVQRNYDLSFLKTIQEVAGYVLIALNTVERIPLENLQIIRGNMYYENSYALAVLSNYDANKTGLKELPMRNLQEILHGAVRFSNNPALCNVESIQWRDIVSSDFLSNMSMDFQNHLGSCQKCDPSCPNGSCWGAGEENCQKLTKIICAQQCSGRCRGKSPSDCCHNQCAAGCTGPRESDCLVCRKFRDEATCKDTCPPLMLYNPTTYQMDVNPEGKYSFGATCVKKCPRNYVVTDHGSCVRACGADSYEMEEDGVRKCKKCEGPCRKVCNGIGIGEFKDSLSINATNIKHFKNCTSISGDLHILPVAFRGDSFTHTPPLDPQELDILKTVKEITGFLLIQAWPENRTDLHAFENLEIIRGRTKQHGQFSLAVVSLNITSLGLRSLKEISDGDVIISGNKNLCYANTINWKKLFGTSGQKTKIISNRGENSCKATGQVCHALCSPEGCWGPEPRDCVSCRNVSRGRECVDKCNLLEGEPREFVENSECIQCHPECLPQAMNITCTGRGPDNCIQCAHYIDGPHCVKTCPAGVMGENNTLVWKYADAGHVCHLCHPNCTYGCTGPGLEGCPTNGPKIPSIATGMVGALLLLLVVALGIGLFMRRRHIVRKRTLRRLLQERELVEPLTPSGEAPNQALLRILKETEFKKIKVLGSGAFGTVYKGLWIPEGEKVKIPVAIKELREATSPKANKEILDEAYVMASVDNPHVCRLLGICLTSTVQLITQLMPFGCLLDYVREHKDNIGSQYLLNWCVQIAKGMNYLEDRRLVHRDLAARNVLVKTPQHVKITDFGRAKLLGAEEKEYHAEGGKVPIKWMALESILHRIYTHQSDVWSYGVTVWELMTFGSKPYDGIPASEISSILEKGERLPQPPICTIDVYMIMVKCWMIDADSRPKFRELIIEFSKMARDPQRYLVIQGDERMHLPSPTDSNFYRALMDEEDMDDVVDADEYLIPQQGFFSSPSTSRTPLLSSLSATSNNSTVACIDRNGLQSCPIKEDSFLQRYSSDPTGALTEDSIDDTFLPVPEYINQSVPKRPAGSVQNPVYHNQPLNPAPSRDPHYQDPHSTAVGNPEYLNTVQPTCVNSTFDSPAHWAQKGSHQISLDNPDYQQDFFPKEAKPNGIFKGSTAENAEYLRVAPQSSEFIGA
T1 sequence (P00533 25-1210): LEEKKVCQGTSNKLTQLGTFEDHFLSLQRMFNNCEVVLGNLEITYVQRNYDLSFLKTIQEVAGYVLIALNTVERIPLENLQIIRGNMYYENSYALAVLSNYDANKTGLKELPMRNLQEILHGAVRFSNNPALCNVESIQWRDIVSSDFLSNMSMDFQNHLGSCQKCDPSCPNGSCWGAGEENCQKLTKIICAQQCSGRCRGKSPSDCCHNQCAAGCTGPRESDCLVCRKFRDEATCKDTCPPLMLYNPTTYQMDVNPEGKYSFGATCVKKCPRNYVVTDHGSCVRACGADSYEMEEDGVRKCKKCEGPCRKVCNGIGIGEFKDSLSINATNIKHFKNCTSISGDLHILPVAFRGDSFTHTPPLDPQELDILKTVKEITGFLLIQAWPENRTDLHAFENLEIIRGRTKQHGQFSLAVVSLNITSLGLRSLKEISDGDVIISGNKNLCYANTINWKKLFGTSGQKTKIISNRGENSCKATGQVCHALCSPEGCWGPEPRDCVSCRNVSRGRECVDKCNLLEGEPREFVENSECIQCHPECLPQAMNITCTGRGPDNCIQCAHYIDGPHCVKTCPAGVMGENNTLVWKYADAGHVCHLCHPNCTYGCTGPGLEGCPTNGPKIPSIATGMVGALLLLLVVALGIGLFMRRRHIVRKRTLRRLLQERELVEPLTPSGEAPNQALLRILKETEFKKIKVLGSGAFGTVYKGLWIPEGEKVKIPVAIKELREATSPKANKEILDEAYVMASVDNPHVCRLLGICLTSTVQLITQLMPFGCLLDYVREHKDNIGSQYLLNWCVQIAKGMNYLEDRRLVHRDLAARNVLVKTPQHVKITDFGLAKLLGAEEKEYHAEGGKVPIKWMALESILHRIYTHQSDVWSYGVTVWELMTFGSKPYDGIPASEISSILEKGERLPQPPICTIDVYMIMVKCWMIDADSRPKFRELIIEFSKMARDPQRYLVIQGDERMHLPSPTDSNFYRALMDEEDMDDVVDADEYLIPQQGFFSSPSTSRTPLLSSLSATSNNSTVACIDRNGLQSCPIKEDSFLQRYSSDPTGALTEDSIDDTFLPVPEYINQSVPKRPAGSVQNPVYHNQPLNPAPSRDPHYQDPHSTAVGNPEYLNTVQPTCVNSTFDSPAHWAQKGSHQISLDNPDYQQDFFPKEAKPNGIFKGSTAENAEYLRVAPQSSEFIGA

Take `C=CC(=O)N(C)c1cccc(-n2c(NC(=O)c3cccc(C(F)(F)F)c3)nc3cc(C)ccc32)c1` [Example 2-10, N-{5-methyl-1-[3-(N-methylprop-2-enamido)phenyl]-1H-1,3-benzodiazol-2-yl}-3-(trifluoromethyl)benzamide]: the IC50 is greater than 8 µM in assay [1]; 0.66 µM in assay [2]; 0.003 µM in assay [3] (setting [5]); 0.085 µM in assay [3] (setting [6]); 0.11 µM in assay [4].

As to `C=CC(=O)N[C@@H]1CCC[C@H](n2c(NC(=O)c3cccc(C(F)(F)F)c3)nc3cc(C)ccc32)C1` (single isomer, unassigned) [Example 9-2B], the IC50 in assay [1] is greater than 10 µM; in assay [2], greater than 10 µM; in assay [4] it was 0.4 µM.

Take `Cc1cc(C(=O)Nc2nc3cccc(Cl)c3n2-c2cc(NC(=O)/C=C/CN(C)C)ccc2C)ccn1` [Example 2-15, (E)-N-(7-chloro-1-(5-(4-(dimethylamino)but-2-enamido)-2-methylphenyl)-1H-benzo[d]imidazol-2-yl)-2-methylisonicotinamide]: the values for the IC50 in assay [3] (setting [5]) and in assay [3] (setting [6]) were 1.06 µM and 20 µM, respectively.

Consider `C=CC(=O)Nc1ccccc1-n1c(NC(=O)c2cccc(C(F)(F)F)c2)nc2cc(C)ccc21` [Example 2-12, N-{5-methyl-1-[2-(prop-2-enamido)phenyl]-1H-1,3-benzodiazol-2-yl}-3-(trifluoromethyl)benzamide], for which the IC50 was 0.1 µM in assay [3] (setting [5]) and 1.8 µM in assay [3] (setting [6]).

For the compound `C=CC(=O)N[C@H]1CC[C@@H](n2c(NC(=O)c3cccc(C(F)(F)F)c3)nc3cc(C)ccc32)C1` (single isomer, unassigned) [Example 9-1A], the results for the IC50 in assay [3] (setting [5]) and in assay [3] (setting [6]) were 0.08 µM and 0.75 µM, respectively.

Turning to `C=CC(=O)N[C@@H]1CCC[C@H](n2c(NC(=O)c3cccc(C(F)(F)F)c3)nc3cc(C)ccc32)C1` (racemic) [Example 8-1, N-{5-methyl-1-[(1S,3R)-3-(prop-2-enamido)cyclohexyl]-1H-1,3-benzodiazol-2-yl}-3-(trifluoromethyl)benzamide], the IC50 in assay [1] is greater than 10 µM; in assay [2] it was 0.54 µM; in assay [4] it was 0.041 µM.

Turning to `C/C=C/C(=O)Nc1cccc(-n2c(NC(=O)c3cccc(C(F)(F)F)c3)nc3cc(C)ccc32)c1` [Example 2-14, N-{1-[3-(but-2-enamido)phenyl]-5-methyl-1H-1,3-benzodiazol-2-yl}-3-(trifluoromethyl)benzamide], the results for the IC50 in assay [3] (setting [5]) and in assay [3] (setting [6]) were 0.101 µM and 0.36 µM, respectively.

For the compound `C=CC(=O)Nc1cc(-n2c(NC(=O)c3ccnc(C)c3)nc3cccc(Cl)c32)ccc1C` [Example 2-17, N-(1-(3-acrylamido-4-methylphenyl)-7-chloro-1H-benzo[d]imidazol-2-yl)-2-methylisonicotinamide], the IC50 in assay [3] (setting [5]) was 0.006 µM; in assay [3] (setting [6]), 0.065 µM.

`C=CC(=O)Nc1ccc(-n2c(NC(=O)c3cccc(C(F)(F)F)c3)nc3cc(C)ccc32)cc1` [Example 2-11, N-{5-methyl-1-[4-(prop-2-enamido)phenyl]-1H-1,3-benzodiazol-2-yl}-3-(trifluoromethyl)benzamide]: the figures for the IC50 in assay [3] (setting [5]) and in assay [3] (setting [6]) were 0.15 µM and 1.04 µM, respectively.

For the compound `C=CC(=O)Nc1ccc(C)c(-n2c(NC(=O)c3ccnc(C)c3)nc3cccc(Cl)c32)c1` [Example 2-16, N-(1-(5-acrylamido-2-methylphenyl)-7-chloro-1H-benzo[d]imidazol-2-yl)-2-methylisonicotinamide], the IC50 in assay [3] (setting [5]) turned out to be 1.07 µM; in assay [3] (setting [6]), 9.38 µM.

On to `C=CC(=O)N[C@H]1CCC[C@@H](n2c(NC(=O)c3cccc(C(F)(F)F)c3)nc3cc(C)ccc32)C1` (single isomer, unassigned) [Example 9-2A], for which the IC50 is greater than 10 µM in assay [1], 0.54 µM in assay [2] and 0.032 µM in assay [4].

For the compound `C=CC(=O)N[C@H]1CC[C@@H](n2c(NC(=O)c3cccc(C(F)(F)F)c3)nc3cc(C)ccc32)CC1` [Example 8-8, N-{5-methyl-1-[(1S,4S)-4-(prop-2-enamido)cyclohexyl]-1H-1,3-benzodiazol-2-yl}-3-(trifluoromethyl)benzamide], the IC50 in assay [3] (setting [5]) was 0.21 µM; in assay [3] (setting [6]), 0.46 µM.

On to `C=CC(=O)N[C@@H]1CCCC[C@H]1n1c(NC(=O)c2cccc(C(F)(F)F)c2)nc2cc(C)ccc21` [Example 8-7, N-{5-methyl-1-[(1R,2R)-2-(prop-2-enamido)cyclohexyl]-1H-1,3-benzodiazol-2-yl}-3-(trifluoromethyl)benzamide], for which the IC50 in assay [3] (setting [5]) stood at 0.31 µM; in assay [3] (setting [6]), 2.3 µM.

Take `C=CC(=O)N[C@H]1CCCCC1n1c(NC(=O)c2cccc(C(F)(F)F)c2)nc2cc(C)ccc21` (stereo partly drawn) [Example 8-6, N-{5-methyl-1-[(1R,25)-2-(prop-2-enamido)cyclohexyl]-1H-1,3-benzodiazol-2-yl}-3-(trifluoromethyl)benzamide]: the IC50 was 0.079 µM in assay [3] (setting [5]) and greater than 50 µM in assay [3] (setting [6]).

In the case of `C=CC(=O)NC1CCC(n2c(NC(=O)c3cccc(C(F)(F)F)c3)nc3cc(C)ccc32)C1` (racemic) [Example 8-3, N-{5-methyl-1-[3-(prop-2-enamido)cyclopentyl]-1H-1,3-benzodiazol-2-yl}-3-(trifluoromethyl)benzamide], the figures for the IC50 in assay [3] (setting [5]) and in assay [3] (setting [6]) were 0.15 µM and 0.72 µM, respectively.

For the compound `C=CC(=O)NCCn1c(NC(=O)c2cccc(C(F)(F)F)c2)nc2cc(C)ccc21` [Example 8-5, N-{5-methyl-1-[2-(prop-2-enamido)ethyl]-1H-1,3-benzodiazol-2-yl}-3-(trifluoromethyl)benzamide], the IC50 in assay [3] (setting [5]) came to 0.82 µM; in assay [3] (setting [6]), 2.64 µM.

In the case of `C=CC(=O)N[C@H]1CC[C@H](n2c(NC(=O)c3cccc(C(F)(F)F)c3)nc3cc(C)ccc32)CC1` [Example 8-9, N-{5-methyl-1-[(1R,4R)-4-(prop-2-enamido)cyclohexyl]-1H-1,3-benzodiazol-2-yl}-3-(trifluoromethyl)benzamide], the figures for the IC50 in assay [3] (setting [5]) and in assay [3] (setting [6]) were 0.57 µM and 0.22 µM, respectively.

As for `C=CC(=O)Nc1cc(C)cc(-n2c(NC(=O)c3ccnc(C)c3)nc3cccc(Cl)c32)c1` [Example 2-18, N-(1-(3-acrylamido-5-methylphenyl)-7-chloro-1H-benzo[d]imidazol-2-yl)-2-methylisonicotinamide], the IC50 stood at 0.046 µM in assay [3] (setting [5]) and 0.627 µM in assay [3] (setting [6]).

Turning to `C=CC(=O)N[C@@H]1CC[C@H](n2c(NC(=O)c3cccc(C(F)(F)F)c3)nc3cc(C)ccc32)C1` (single isomer, unassigned) [Example 9-1B], the values for the IC50 in assay [3] (setting [5]) and in assay [3] (setting [6]) were 0.15 µM and 0.29 µM, respectively.
